Measured values from ChEMBL document CHEMBL6109134, “Discovery of AMG 193, an MTA-Cooperative PRMT5 Inhibitor for the Treatment of MTAP-Deleted Cancers” (J Med Chem, 2025).
Values after ≈ are worked out from the molar mass of the structure shown. Active and inactive are the calls of the source. No cut-off for these calls is given here.

Experiments:
[1] = test system: HCT-116; assay: Antiproliferative activity against MTAP-deleted human HCT-116 cells assessed as effect on cell viability incubated for 6 days by Celltiter-Glo luminescent cell viability assay; assay type: functional, cell-based; details: HCT-116, 144 h
[2] = test system: HCT-116; assay: Antiproliferative activity against human HCT-116 cells harboring wildtype MTAP assessed as effect on cell viability incubated for 6 days by Celltiter-Glo luminescent cell viability assay; assay type: functional, cell-based; details: HCT-116, 144 h
[3] = test system: human MDR1 (P-gp); assay: Efflux ratio of permeability across basolateral to apical side over apical to basolateral side in MDCK cells transfected with human MDR1 in absence of elacridar; details: dog
[4] = Metabolic stability in mouse liver microsomes assessed as intrinsic clearance at 0.5 uM incubated for 40 mins in presence of NADPH; assay type: ADME, Microsome; details: read-out: CLH
[5] = Unbound clearance in CD-1 mouse at 1 mg/kg, iv; assay type: ADME, organism-based; details: in vivo
[6] = Solubility of compound in Hcl buffer at pH 2.0
[7] = Solubility of compound in SIF at pH 6.8
[8] = molecular target: Cytochrome P450 3A4 (Homo sapiens, UniProt P08684); assay: Inhibition of CYP3A4 (unknown origin)
Chain of Cytochrome P450 3A4 (P08684 whole entry): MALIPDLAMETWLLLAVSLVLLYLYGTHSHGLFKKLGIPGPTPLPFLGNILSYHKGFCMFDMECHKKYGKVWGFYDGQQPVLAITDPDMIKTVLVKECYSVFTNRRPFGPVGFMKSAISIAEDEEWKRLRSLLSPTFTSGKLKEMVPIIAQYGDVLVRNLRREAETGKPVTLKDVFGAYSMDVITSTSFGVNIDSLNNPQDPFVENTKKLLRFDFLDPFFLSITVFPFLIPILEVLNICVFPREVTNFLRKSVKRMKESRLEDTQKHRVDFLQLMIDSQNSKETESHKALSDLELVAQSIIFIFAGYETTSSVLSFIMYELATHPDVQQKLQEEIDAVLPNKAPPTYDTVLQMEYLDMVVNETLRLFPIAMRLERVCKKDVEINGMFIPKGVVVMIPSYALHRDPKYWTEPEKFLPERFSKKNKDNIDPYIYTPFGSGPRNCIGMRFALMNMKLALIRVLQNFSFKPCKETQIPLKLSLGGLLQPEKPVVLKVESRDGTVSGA

[9] = molecular target: Cytochrome P450 2D6 (Homo sapiens, UniProt P10635); assay: Inhibition of CYP2D6 (unknown origin)
Chain of Cytochrome P450 2D6 (P10635 whole entry): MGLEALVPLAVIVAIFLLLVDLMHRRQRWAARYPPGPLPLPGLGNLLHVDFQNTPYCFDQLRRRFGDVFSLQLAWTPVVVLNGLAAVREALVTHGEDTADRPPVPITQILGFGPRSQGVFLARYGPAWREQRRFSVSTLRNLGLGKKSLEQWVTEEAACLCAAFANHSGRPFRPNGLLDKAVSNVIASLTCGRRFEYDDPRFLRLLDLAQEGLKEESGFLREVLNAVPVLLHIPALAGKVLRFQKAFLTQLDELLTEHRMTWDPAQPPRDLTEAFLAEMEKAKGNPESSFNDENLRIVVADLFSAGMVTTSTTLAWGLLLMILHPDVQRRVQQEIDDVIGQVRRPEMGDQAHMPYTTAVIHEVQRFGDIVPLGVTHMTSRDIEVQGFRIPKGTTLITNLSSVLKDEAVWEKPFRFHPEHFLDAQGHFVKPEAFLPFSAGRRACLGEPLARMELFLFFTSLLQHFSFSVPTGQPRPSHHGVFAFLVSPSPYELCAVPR

[10] = Metabolic stability in rat liver microsomes assessed as intrinsic clearance; assay type: ADME, Microsome; details: time 40 min, read-out: CLH
[11] = Metabolic stability in human hepatocytes assessed as intrinsic clearance measured per 10^6 cells; assay type: ADME, cell-based, Hepatocyte; details: read-out: CLH
[12] = Metabolic stability in mouse hepatocytes assessed as intrinsic clearance measured per 10^6 cells; assay type: ADME, cell-based, Hepatocyte; details: read-out: CLH
[13] = Metabolic stability in dog hepatocytes assessed as intrinsic clearance measured per 10^6 cells; assay type: ADME, cell-based, Canis lupus familiaris, Hepatocyte; details: read-out: CLH
[14] = Clearance in Sprague-Dawley rat at 0.5 mg/kg, iv; details: in vivo
[15] = molecular target: Protein arginine N-methyltransferase 5 (Homo sapiens) (UniProt O14744); assay: Selectivity ratio of dissociation rate for binding affinity to PRMT5 (unknown origin) in presence of SAM to dissociation rate for binding affinity to PRMT5 (unknown origin) in presence of MTA
Chain of Protein arginine N-methyltransferase 5 (Homo sapiens) (O14744 whole entry): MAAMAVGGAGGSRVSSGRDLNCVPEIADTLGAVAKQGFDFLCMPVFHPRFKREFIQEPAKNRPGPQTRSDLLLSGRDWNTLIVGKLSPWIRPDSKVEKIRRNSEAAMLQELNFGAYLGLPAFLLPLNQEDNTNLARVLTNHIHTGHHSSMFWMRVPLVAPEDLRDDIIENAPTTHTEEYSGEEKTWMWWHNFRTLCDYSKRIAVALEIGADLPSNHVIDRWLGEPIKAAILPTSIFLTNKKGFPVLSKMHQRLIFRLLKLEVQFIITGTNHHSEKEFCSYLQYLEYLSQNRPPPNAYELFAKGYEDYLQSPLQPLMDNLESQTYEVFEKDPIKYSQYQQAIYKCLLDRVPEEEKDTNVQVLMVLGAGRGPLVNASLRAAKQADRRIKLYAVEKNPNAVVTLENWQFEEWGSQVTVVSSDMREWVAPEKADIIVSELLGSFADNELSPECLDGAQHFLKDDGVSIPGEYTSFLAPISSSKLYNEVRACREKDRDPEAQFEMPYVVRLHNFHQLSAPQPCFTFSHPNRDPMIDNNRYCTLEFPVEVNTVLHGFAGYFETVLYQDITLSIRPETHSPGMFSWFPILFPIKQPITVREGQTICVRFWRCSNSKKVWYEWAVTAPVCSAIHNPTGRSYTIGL

[16] = Toxicity in male rat up to 75 mg/kg, po administered as single dose for 14 days; assay type: organism-based; details: in vivo, 336 h, time 14 day
[17] = Mutagenicity in Salmonella typhimurium by Ames test; assay type: toxicity; details: salmonella enterica subsp. enterica serovar typhimurium
[18] = Unbound brain-to-plasma concentration ratio in female Sprague-Dawley rat at 25 mg/kg, po administered as single dose; assay type: ADME, organism-based; details: read-out: K(p,uu,brain)
[19] = Unbound CSF-to-plasma concentration ratio in male Sprague-Dawley rat at 25 mg/kg, po administered as single dose; assay type: ADME, organism-based
[20] = Unbound brain-to-plasma concentration ratio in male Sprague-Dawley rat at 75 mg/kg, po administered as single dose; assay type: ADME, organism-based; details: read-out: K(p,uu,brain)
[21] = Unbound CSF-to-plasma concentration ratio in male Sprague-Dawley rat at 75 mg/kg, po administered as single dose; assay type: ADME, organism-based
[22] = Unbound CSF-to-plasma concentration ratio in female Sprague-Dawley rat at 75 mg/kg, po administered as single dose; assay type: ADME, organism-based
[23] = molecular target: PRMT5/MEP50 complex (Homo sapiens) (UniProt O14744+Q9BQA1); assay: Inhibition of human PRMT5/MEP50 at 10 uM relative to control; assay type: protein-complex assay
[24] = molecular target: DNA (cytosine-5)-methyltransferase 1 (Homo sapiens) (UniProt P26358); assay: Activation of human DNMT1 at 10 uM relative to control
Chain of DNA (cytosine-5)-methyltransferase 1 (Homo sapiens) (P26358 whole entry): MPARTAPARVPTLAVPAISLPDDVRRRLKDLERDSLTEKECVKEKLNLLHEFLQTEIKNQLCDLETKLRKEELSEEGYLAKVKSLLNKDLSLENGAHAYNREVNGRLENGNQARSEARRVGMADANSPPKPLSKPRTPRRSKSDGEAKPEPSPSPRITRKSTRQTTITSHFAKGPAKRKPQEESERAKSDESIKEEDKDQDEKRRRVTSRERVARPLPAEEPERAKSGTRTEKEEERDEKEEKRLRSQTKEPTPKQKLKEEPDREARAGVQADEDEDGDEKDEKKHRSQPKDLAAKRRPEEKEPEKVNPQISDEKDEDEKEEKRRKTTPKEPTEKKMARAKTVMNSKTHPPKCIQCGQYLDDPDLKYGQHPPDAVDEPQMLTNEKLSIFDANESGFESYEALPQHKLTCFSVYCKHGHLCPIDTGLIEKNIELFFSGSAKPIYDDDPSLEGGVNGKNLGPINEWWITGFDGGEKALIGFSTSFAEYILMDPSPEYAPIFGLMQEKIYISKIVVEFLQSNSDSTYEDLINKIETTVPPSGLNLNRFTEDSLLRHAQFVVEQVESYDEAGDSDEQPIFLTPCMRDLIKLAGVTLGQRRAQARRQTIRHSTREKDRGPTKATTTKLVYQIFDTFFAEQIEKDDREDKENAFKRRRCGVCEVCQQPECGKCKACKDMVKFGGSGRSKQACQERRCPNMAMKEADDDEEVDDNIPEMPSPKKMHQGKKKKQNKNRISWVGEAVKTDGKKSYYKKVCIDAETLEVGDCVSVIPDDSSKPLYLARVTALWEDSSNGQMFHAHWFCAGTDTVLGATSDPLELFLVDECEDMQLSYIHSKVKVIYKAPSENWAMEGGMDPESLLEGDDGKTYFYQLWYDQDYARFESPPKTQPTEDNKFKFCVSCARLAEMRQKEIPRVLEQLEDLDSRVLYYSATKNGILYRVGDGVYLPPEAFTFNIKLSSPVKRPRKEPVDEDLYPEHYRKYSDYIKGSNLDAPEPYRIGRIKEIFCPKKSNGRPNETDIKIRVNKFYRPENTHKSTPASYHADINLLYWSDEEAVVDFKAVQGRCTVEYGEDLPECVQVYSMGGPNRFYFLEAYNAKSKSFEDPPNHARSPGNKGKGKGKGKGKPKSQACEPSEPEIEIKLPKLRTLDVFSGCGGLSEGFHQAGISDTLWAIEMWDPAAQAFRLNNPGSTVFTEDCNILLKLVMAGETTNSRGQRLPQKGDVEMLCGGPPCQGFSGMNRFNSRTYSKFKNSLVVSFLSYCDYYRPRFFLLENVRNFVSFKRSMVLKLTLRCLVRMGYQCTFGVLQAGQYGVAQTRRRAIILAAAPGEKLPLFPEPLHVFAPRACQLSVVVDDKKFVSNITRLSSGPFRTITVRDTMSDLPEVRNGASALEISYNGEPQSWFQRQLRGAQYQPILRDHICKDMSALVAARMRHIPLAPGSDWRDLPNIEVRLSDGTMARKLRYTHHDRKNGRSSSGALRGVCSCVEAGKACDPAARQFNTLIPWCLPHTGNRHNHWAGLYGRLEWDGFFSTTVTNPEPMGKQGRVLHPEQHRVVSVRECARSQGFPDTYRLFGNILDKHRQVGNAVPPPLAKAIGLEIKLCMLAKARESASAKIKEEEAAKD

[25] = molecular target: Protein arginine N-methyltransferase 5 (Homo sapiens) (UniProt O14744); assay: In vivo inhibition of PRMT5 in athymic nude mouse xenografted with human HCT-116 cells harboring wildtype MTAP assessed as decrease in SDMA level in tumor at 30 mg/kg, po administered once daily for 4 days and measured 4 hrs post last dose by ELISA relative to control; assay type: functional, organism-based; details: time 4.0 day
[26] = molecular target: Protein arginine N-methyltransferase 5 (Homo sapiens) (UniProt O14744); assay: In vivo inhibition of PRMT5 in athymic nude mouse xenografted with human HCT-116 cells harboring wildtype MTAP assessed as decrease in SDMA level in tumor at 100 mg/kg, po administered once daily for 4 days and measured 4 hrs post last dose by ELISA relative to control; assay type: functional, organism-based; details: time 4.0 day
[27] = molecular target: Protein arginine N-methyltransferase 5 (Homo sapiens) (UniProt O14744); assay: In vivo inhibition of PRMT5 in athymic nude mouse xenografted with MTAP-deleted human HCT-116 cells assessed as decrease in SDMA level in tumor at 3 mg/kg, po administered once daily for 4 days and measured 4 hrs post last dose by ELISA relative to control; assay type: functional, organism-based; details: time 4.0 day
[28] = molecular target: Protein arginine N-methyltransferase 5 (Homo sapiens) (UniProt O14744); assay: In vivo inhibition of PRMT5 in athymic nude mouse xenografted with MTAP-deleted human HCT-116 cells assessed as decrease in SDMA level in tumor at 10 mg/kg, po administered once daily for 4 days and measured 4 hrs post last dose by ELISA relative to control; assay type: functional, organism-based; details: time 4.0 day
[29] = molecular target: Protein arginine N-methyltransferase 5 (Homo sapiens) (UniProt O14744); assay: In vivo inhibition of PRMT5 in athymic nude mouse xenografted with MTAP-deleted human HCT-116 cells assessed as decrease in SDMA level in tumor at 30 mg/kg, po administered once daily for 4 days and measured 4 hrs post last dose by ELISA relative to control; assay type: functional, organism-based; details: time 4.0 day
[30] = test system: HCT-116; assay: Antitumor activity against human HCT-116 cells harboring wildtype MTAP xenografted in female athymic nude mouse model assessed as tumor growth inhibition at 3 to 100 mg/kg, po administered once daily for 14 days; assay type: functional, organism-based; details: dose 3-100 mg/kg, time 14.0 day
[31] = test system: HCT-116; assay: Antitumor activity against MTAP-deleted human HCT-116 cells xenografted in female athymic nude mouse model assessed as tumor growth inhibition at 100 mg/kg, po administered once daily for 14 days relative to control; assay type: functional; details: HCT-116, 336 h, time 14 day, read-out: TGI
[32] = Toxicity in female athymic nude mouse xenografted with MTAP-deleted human HCT-116 cells assessed as body weight change at 3 to 100 mg/kg, po administered once daily for 14 days; assay type: organism-based; details: in vivo, 336 h, dose 3-100 mg/kg, time 14 day
[33] = test system: BXPC-3; assay: Antitumor activity against MTAP-deleted human BXPC-3 cells xenografted in athymic nude mouse model assessed as tumor growth inhibition at 30 mg/kg, po administered once daily for 26 days and measured 24 hrs post last dose relative to control; assay type: functional; details: BXPC-3, 648 h, time 27 day, read-out: TGI
[34] = Antitumor activity against MTAP-deleted human U-87 MG cells xenografted in female athymic nude mouse model assessed as tumor growth inhibition at 10 mg/kg, po administered once daily for 14 days and measured 24 hrs post last dose relative to control; assay type: functional, U-87MG ATCC; details: 360 h, time 15 day, read-out: TGI
[35] = molecular target: Protein arginine N-methyltransferase 5 (Homo sapiens) (UniProt O14744); assay: In vivo inhibition of PRMT5 in female athymic nude mouse xenografted with MTAP-deleted human U-87 MG cells assessed as decrease in SDMA level in tumor at 30 mg/kg, po administered once daily for 14 days and measured 2 to 8 hrs post last dose by ELISA relative to control; assay type: functional, organism-based; details: time 338-344 hrs
[36] = Toxicity in female athymic nude mouse xenografted with MTAP-deleted human U-87 MG cells assessed as effect on body weight at 10 to 100 mg/kg, po administered once daily for 14 days; assay type: organism-based; details: in vivo, 336 h, dose 10-100 mg/kg, time 14 day
[37] = molecular target: PRMT5/MEP50 complex (Homo sapiens, UniProt O14744)
Chain of PRMT5/MEP50 complex (O14744 whole entry): as the sequence (O14744 whole entry) above
Chain of PRMT5/MEP50 complex (Q9BQA1 whole entry, further chain): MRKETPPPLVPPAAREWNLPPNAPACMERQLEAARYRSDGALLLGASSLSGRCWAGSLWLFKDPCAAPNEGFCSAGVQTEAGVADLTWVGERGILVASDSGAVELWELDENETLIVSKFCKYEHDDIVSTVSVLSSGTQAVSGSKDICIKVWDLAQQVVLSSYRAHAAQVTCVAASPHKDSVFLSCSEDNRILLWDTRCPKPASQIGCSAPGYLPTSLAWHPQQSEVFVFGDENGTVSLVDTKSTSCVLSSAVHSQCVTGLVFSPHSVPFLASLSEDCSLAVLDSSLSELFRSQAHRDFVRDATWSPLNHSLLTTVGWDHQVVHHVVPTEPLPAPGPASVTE
Description: Inhibition of PRMT5/MEP50 (unknown origin) preincubated with compound for 24 hrs in presence of SAM and MTA followed by Histone H4 (1-21)-Lys(Biotin) peptide addition and measured after 2 hrs by MTase-Glo reagent based assay

## Nc1nc2cnc(C(=O)N3CCOC[C@@H]3c3ccc(C(F)(F)F)cc3)cc2c2c1COC2
[1]
  IC50: 0.102 µM
[2]
  IC50: 4.33 µM
[3]
  efflux ratio: 3
[4]
  microsomal CLint at 0.5 µM: 37 µL/min/mg
[5]
  CL free: 142 mL/min/kg
[6]
  solubility: 492 µM (≈ 219 µg/mL)
[7]
  solubility: 335 µM (≈ 149 µg/mL)
[8]
  IC50: 124 µM
[9]
  IC50: 117 µM
[10]
  microsomal CLint at 0.5 µM: 123 µL/min/mg
[11]
  hepatocyte CLint: 6 µL/min/1e6 cells
[12]
  hepatocyte CLint: 13 µL/min/1e6 cells
[13]
  hepatocyte CLint: 5 µL/min/1e6 cells
[14]
  clearance: 28.3 mL/min/kg
[15]
  Selectivity ratio: 60
[16]
  Activity: Non-toxic
[17]
  Activity: Non-toxic
[18]
  Kp uu: 0.14
[19]
  Kp uu: 0.24
[20]
  Kp uu: 0.15
[21]
  Kp uu: 0.13
[22]
  Kp uu: 0.2
[23]
  inhibition: 84%
[24]
  Activity: 32%
[25]
  inhibition: 48%
[26]
  inhibition: 79%
[27]
  inhibition: 69%
[28]
  inhibition: 73%
[29]
  inhibition: 72%
[30]
  Activity: inactive
[31]
  inhibition in vivo at 100 mg/kg: 87%
[32]
  Activity: Non-toxic
[33]
  inhibition in vivo at 30 mg/kg: 61%
[34]
  inhibition in vivo at 10 mg/kg: 42%
[35]
  inhibition: 77%
[36]
  Activity: Non-toxic
[37]
  Ki: < 0.0001 µM
